In patent US20240148709A1, “METHODS OF TREATING EYE PAIN AND EYE DISORDERS” (Aisa Pharma, Inc., priority 2022, published 2024):
Several values for one entry are separate records, joined by “and”; a condition that tells them apart may be missing. Identical values can stand only once.

Test system: participants with SSc-RP
Assay: Scleroderma Health Assessment Questionnaire (SHAQ), Phase 2a study Part A
Type: in vivo, human
Procedure: Part A—double-blind, placebo-controlled, parallel-group, dose selection, will assess the safety and efficacy of two doses of cilnidipine (10 mg and 20 mg), alone and in combination with tadalafil. A total of 36 participants will be randomized to one of six prespecified treatment arms. Refer to FIG. 1 for treatment arms in Part A of the study. Dosing last for 12 (±2) days in which participants will self-administer daily doses of assigned treatment in the morning. Each participant will take one capsule and one tablet to blind the active therapy being received.
The standard, validated, patient reported outcome measures tool for SSc patients, the SHAQ, will be collected at the time points specified in the study schedules (FIG. 2 and FIGS. 3A and 3B) to assess the participant's quality of life. The SHAQ includes a Raynaud's VAS that will also be reported separately.
Results: Patients in the study were administered the Scleroderma Health Assessment Questionnaire (SHAQ) at the time of study entry and during clinic visits following the treatment period. The study is a two-part, parallel arm design, prospective, double-blind, randomized study conducted in Australia (Flinders Medical Center). 27 patients were randomized into the first phase of the study, following which a DSMB meeting was held, which reviewed data on the primary study endpoint and key Raynaud's secondary endpoints. Data on the SHAQ was not available for the DSMB to review. The mITT population, in which any data was available post treatment was 24 patients was the analysis population for this first part of the study. The second part (i.e., part B) of the study will randomize 36 patients in a double blind, randomized, prospective, placebo controlled, crossover study. In the first part (i.e., Part A) of the study for which data is presented, patients were randomized into 6 groups, cilnidipine at two doses (10 and 20 mg) alone and in combination with tadalafil 5 mg, tadalafil 5 mg alone, and placebo. […] The DSMB recommended that the study proceed into its double blind prospective cross overpowered second phase and compare cilnidipine 20 mg alone to placebo.

[1] = cilnidipine 20 mg arms (alone or + tadalafil 5 mg)

For COCCOC(=O)C1=C(C)NC(C)=C(C(=O)OC/C=C/c2ccccc2)C1c1cccc([N+](=O)[O-])c1 (stereo not shown) [Cilnidipine, cilnidipine], the “SHAQ Visual Analog Scale-Breathing Problems, Change from Baseline, Q3” value [1] was 0.300, the “SHAQ Visual Analog Scale-Breathing Problems, In Clinic Visit (Day 12), Max” value [1] was 0.50 and the “SHAQ Visual Analog Scale-Breathing Problems, In Clinic Visit (Day 12), Mean (SD)” value [1] was 0.300 (0.2646). The “SHAQ Visual Analog Scale-Breathing Problems, In Clinic Visit (Day 12), Median” value [1] was 0.400, the “SHAQ Visual Analog Scale-Breathing Problems, In Clinic Visit (Day 12), Min” value [1] was 0.00 and the “SHAQ Visual Analog Scale-Breathing Problems, In Clinic Visit (Day 12), Q1” value [1] was 0.000. For the same compound, the “SHAQ Visual Analog Scale-Breathing Problems, In Clinic Visit (Day 12), Q3” value [1] was 0.500, the “SHAQ Visual Analog Scale-Breathing Problems, Percent Change from Baseline, Max” value [1] was 150.0% and the “SHAQ Visual Analog Scale-Breathing Problems, Percent Change from Baseline, Mean (SD)” value [1] was −5.56 (135.742) %. For the same compound, the “SHAQ Visual Analog Scale-Breathing Problems, Percent Change from Baseline, Median” value [1] was −66.67%, the “SHAQ Visual Analog Scale-Breathing Problems, Percent Change from Baseline, Min” value [1] was −100.0% and the “SHAQ Visual Analog Scale-Breathing Problems, Percent Change from Baseline, Q1” value [1] was −100.00%. For the same compound, the “SHAQ Visual Analog Scale-Breathing Problems, Percent Change from Baseline, Q3” value [1] was 150.00%, the “SHAQ Visual Analog Scale-Intestinal Problems, Change from Baseline, Max” value [1] was 0.60 and the “SHAQ Visual Analog Scale-Intestinal Problems, Change from Baseline, Mean (SD)” value [1] was 0.300 (0.3000). The “SHAQ Visual Analog Scale-Intestinal Problems, Change from Baseline, Median” value [1] was 0.300, the “SHAQ Visual Analog Scale-Intestinal Problems, Change from Baseline, Min” value [1] was 0.00 and the “SHAQ Visual Analog Scale-Intestinal Problems, Change from Baseline, Q1” value [1] was 0.000. For the same compound, the “SHAQ Visual Analog Scale-Intestinal Problems, Change from Baseline, Q3” value [1] was 0.600, the “SHAQ Visual Analog Scale-Intestinal Problems, In Clinic Visit (Day 12), Max” value [1] was 2.10 and the “SHAQ Visual Analog Scale-Intestinal Problems, In Clinic Visit (Day 12), Mean (SD)” value [1] was 1.133 (1.0599). For the same compound, the “SHAQ Visual Analog Scale-Intestinal Problems, In Clinic Visit (Day 12), Median” value [1] was 1.300, the “SHAQ Visual Analog Scale-Intestinal Problems, In Clinic Visit (Day 12), Min” value [1] was 0.00 and the “SHAQ Visual Analog Scale-Intestinal Problems, In Clinic Visit (Day 12), Q1” value [1] was 0.000. The “SHAQ Visual Analog Scale-Intestinal Problems, In Clinic Visit (Day 12), Q3” value [1] was 2.100, the “SHAQ Visual Analog Scale-Intestinal Problems, Percent Change from Baseline, Max” value [1] was 40.0% and the “SHAQ Visual Analog Scale-Intestinal Problems, Percent Change from Baseline, Mean (SD)” value [1] was 35.00 (7.071) %. The “SHAQ Visual Analog Scale-Intestinal Problems, Percent Change from Baseline, Median” value [1] was 35.00%, the “SHAQ Visual Analog Scale-Intestinal Problems, Percent Change from Baseline, Min” value [1] was 30.0% and the “SHAQ Visual Analog Scale-Intestinal Problems, Percent Change from Baseline, Q1” value [1] was 30.00%. The “SHAQ Visual Analog Scale-Intestinal Problems, Percent Change from Baseline, Q3” value [1] was 40.00%, the “SHAQ Visual Analog Scale-Pain, Change from Baseline, Max” value [1] was −0.50 and the “SHAQ Visual Analog Scale-Pain, Change from Baseline, Mean (SD)” value [1] was −1.100 (0.7937) and −1.1 (0.79). The “SHAQ Visual Analog Scale-Pain, Change from Baseline, Median” value [1] was −0.800, the “SHAQ Visual Analog Scale-Pain, Change from Baseline, Min” value [1] was −2.00 and the “SHAQ Visual Analog Scale-Pain, Change from Baseline, Q1” value [1] was −2.000. The “SHAQ Visual Analog Scale-Pain, Change from Baseline, Q3” value [1] was −0.500, the “SHAQ Visual Analog Scale-Pain, In Clinic Visit (Day 12), Max” value [1] was 2.10 and the “SHAQ Visual Analog Scale-Pain, In Clinic Visit (Day 12), Mean (SD)” value [1] was 1.067 (0.9074). For the same compound, the “SHAQ Visual Analog Scale-Pain, In Clinic Visit (Day 12), Median” value [1] was 0.700, the “SHAQ Visual Analog Scale-Pain, In Clinic Visit (Day 12), Min” value [1] was 0.40 and the “SHAQ Visual Analog Scale-Pain, In Clinic Visit (Day 12), Q1” value [1] was 0.400. The “SHAQ Visual Analog Scale-Pain, In Clinic Visit (Day 12), Q3” value [1] was 2.100, the “SHAQ Visual Analog Scale-Pain, Percent Change from Baseline, Max” value [1] was −48.8% and the “SHAQ Visual Analog Scale-Pain, Percent Change from Baseline, Mean (SD)” value [1] was −52.56 (3.454) %. The “SHAQ Visual Analog Scale-Pain, Percent Change from Baseline, Median” value [1] was −53.33%, the “SHAQ Visual Analog Scale-Pain, Percent Change from Baseline, Min” value [1] was −55.6% and the “SHAQ Visual Analog Scale-Pain, Percent Change from Baseline, Q1” value [1] was −55.56%. The “SHAQ Visual Analog Scale-Pain, Percent Change from Baseline, Q3” value [1] was −48.78%, the “SHAQ Visual Analog Scale-Raynaud's, Change from Baseline, Max” value [1] was −0.30 and the “SHAQ Visual Analog Scale-Raynaud's, Change from Baseline, Median” value [1] was −1.100. The “SHAQ Visual Analog Scale-Raynaud's, Change from Baseline, Min” value [1] was −2.40, the “SHAQ Visual Analog Scale-Raynaud's, Change from Baseline, Q1” value [1] was −2.400 and the “SHAQ Visual Analog Scale-Raynaud's, Change from Baseline, Q3” value [1] was −0.300. The “SHAQ Visual Analog Scale-Raynaud's, In Clinic Visit (Day 12), Max” value [1] was 1.40, the “SHAQ Visual Analog Scale-Raynaud's, In Clinic Visit (Day 12), Mean (SD)” value [1] was 1.033 (0.4041) and the “SHAQ Visual Analog Scale-Raynaud's, In Clinic Visit (Day 12), Median” value [1] was 1.100. For the same compound, the “SHAQ Visual Analog Scale-Raynaud's, In Clinic Visit (Day 12), Min” value [1] was 0.60, the “SHAQ Visual Analog Scale-Raynaud's, In Clinic Visit (Day 12), Q1” value [1] was 0.600 and the “SHAQ Visual Analog Scale-Raynaud's, In Clinic Visit (Day 12), Q3” value [1] was 1.400. For the same compound, the “SHAQ Visual Analog Scale-Raynaud's, Percent Change from Baseline, Max” value [1] was −33.3%, the “SHAQ Visual Analog Scale-Raynaud's, Percent Change from Baseline, Mean (SD)” value [1] was −48.63 (18.070) % and the “SHAQ Visual Analog Scale-Raynaud's, Percent Change from Baseline, Median” value [1] was −44.00%. The “SHAQ Visual Analog Scale-Raynaud's, Percent Change from Baseline, Min” value [1] was −68.6%, the “SHAQ Visual Analog Scale-Raynaud's, Percent Change from Baseline, Q1” value [1] was −68.57% and the “SHAQ Visual Analog Scale-Raynaud's, Percent Change from Baseline, Q3” value [1] was −33.33%. For the same compound, the “SHAQ alternative disability index, Change from Baseline, Max” value [1] was 0.00, the “SHAQ alternative disability index, Change from Baseline, Mean (SD)” value [1] was −0.083 (0.0722) and the “SHAQ alternative disability index, Change from Baseline, Median” value [1] was −0.125. The “SHAQ alternative disability index, Change from Baseline, Min” value [1] was −0.13, the “SHAQ alternative disability index, Change from Baseline, Q1” value [1] was −0.125 and the “SHAQ alternative disability index, Change from Baseline, Q3” value [1] was 0.000. For the same compound, the “SHAQ alternative disability index, In Clinic Visit (Day 12), Max” value [1] was 0.25, the “SHAQ alternative disability index, In Clinic Visit (Day 12), Mean (SD)” value [1] was 0.125 (0.1250) and the “SHAQ alternative disability index, In Clinic Visit (Day 12), Median” value [1] was 0.125. The “SHAQ alternative disability index, In Clinic Visit (Day 12), Min” value [1] was 0.00, the “SHAQ alternative disability index, In Clinic Visit (Day 12), Q1” value [1] was 0.000 and the “SHAQ alternative disability index, In Clinic Visit (Day 12), Q3” value [1] was 0.250. For the same compound, the “SHAQ alternative disability index, Percent Change from Baseline, Max” value [1] was −33.3%, the “SHAQ alternative disability index, Percent Change from Baseline, Mean (SD)” value [1] was −41.67 (11.785) % and the “SHAQ alternative disability index, Percent Change from Baseline, Median” value [1] was −41.67%. For the same compound, the “SHAQ alternative disability index, Percent Change from Baseline, Min” value [1] was −50.0%, the “SHAQ alternative disability index, Percent Change from Baseline, Q1” value [1] was −50.00% and the “SHAQ alternative disability index, Percent Change from Baseline, Q3” value [1] was −33.33%. For the same compound, the “mean decrease in patient reported disease severity on the SHAQ” value (pooled cilnidipine 10 mg or 20 mg (n=7)) was 60%.
